Test results reported in ChEMBL document CHEMBL1255530, “3D-QSAR CoMFA study of benzoxazepine derivatives as mGluR5 positive allosteric modulators” (Bioorg Med Chem Lett, 2010).

Target: Metabotropic glutamate receptor 5 (Rattus norvegicus, UniProt P31424)
Assay: Positive allosteric modulation of rat mGluR5 expressed in HEK293 cells

Metabotropic glutamate receptor 5, sequence (P31424 whole entry): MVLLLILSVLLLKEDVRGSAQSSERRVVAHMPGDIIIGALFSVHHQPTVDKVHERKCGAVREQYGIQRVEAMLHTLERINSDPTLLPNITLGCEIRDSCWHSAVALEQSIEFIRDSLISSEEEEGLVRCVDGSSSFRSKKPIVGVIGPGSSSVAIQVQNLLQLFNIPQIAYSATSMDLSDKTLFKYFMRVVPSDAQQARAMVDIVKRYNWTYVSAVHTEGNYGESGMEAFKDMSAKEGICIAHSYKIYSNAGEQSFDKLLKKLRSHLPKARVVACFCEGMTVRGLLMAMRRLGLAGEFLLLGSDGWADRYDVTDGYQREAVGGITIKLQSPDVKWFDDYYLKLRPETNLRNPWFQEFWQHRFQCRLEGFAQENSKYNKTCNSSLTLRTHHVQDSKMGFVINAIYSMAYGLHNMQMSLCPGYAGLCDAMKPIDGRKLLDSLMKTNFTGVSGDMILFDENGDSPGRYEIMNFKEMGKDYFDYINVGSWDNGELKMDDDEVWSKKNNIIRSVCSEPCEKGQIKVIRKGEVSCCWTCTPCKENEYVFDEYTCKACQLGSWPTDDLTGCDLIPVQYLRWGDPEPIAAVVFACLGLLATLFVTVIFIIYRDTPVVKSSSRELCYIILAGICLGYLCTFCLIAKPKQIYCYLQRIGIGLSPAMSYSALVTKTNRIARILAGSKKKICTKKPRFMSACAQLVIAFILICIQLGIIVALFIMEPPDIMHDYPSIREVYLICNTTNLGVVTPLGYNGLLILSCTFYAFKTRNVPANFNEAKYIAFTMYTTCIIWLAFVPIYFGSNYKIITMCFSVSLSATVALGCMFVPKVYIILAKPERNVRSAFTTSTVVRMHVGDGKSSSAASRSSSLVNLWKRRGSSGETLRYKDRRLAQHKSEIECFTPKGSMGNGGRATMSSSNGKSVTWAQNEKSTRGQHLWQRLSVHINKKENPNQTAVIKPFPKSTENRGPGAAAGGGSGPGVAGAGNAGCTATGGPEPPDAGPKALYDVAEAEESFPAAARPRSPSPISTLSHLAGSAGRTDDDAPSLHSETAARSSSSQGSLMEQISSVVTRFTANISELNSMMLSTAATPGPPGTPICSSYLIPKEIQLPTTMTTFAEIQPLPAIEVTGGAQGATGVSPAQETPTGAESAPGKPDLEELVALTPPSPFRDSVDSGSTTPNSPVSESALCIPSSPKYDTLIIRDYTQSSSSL

EC50 [µM]	Compound
3.98	CCCCSc1nnc2c(n1)O[C@@H](CC)N(C(C)=O)c1ccccc1-2
1.82	CSc1nnc2c(n1)O[C@@H](c1cn(C)c3ccccc13)N(C(C)=O)c1ccccc1-2
3.8	CSc1nnc2c(n1)O[C@@H](c1ccc(OC(C)=O)c(Br)c1)N(C(C)=O)c1ccccc1-2
1.35	CCC(=O)N1c2ccccc2-c2nnc(SC)nc2O[C@H]1c1ccccc1Br
7.08	CCOc1cc([C@@H]2Oc3nc(SC)nnc3-c3ccccc3N2C(=O)CC)cc(Br)c1OC
1.02	CCCC(=O)N1c2ccccc2-c2nnc(SC)nc2O[C@H]1c1cccc(OC)c1
1.95	CCC(=O)N1c2ccccc2-c2nnc(SC)nc2O[C@H]1c1ccc(C)s1
7.59	CSc1nnc2c(n1)O[C@@H](c1cccc(C)n1)N(C(C)=O)c1ccccc1-2
5.25	CSc1nnc2c(n1)O[C@@H](c1ccccn1)N(C(C)=O)c1ccccc1-2
1.2	CCC(=O)N1c2ccccc2-c2nnc(SC)nc2O[C@H]1c1cc(Cl)c(OC)c(OC)c1
0.513	CCCCSc1nnc2c(n1)O[C@@H](c1cccc(F)c1)N(C(C)=O)c1ccccc1-2
7.41	CCC(=O)N1c2ccccc2-c2nnc(SC)nc2O[C@H]1c1ccccn1
2.57	C=CCOc1ccc([C@@H]2Oc3nc(SC)nnc3-c3ccccc3N2C(C)=O)cc1
2.75	CSc1nnc2c(n1)O[C@@H](c1ccc(C)cc1)N(C(C)=O)c1ccccc1-2
0.692	CCCCSc1nnc2c(n1)O[C@@H](c1cccn1C)N(C(C)=O)c1ccccc1-2
3.63	CCC(=O)N1c2ccccc2-c2nnc(SC)nc2O[C@H]1c1ccc(OC)c(C)c1
0.813	CCSc1nnc2c(n1)O[C@@H](c1cc(Br)ccc1OC)N(C(=O)CC)c1ccccc1-2
4.37	CCSc1nnc2c(n1)O[C@@H](c1ccccn1)N(C(=O)CC)c1ccccc1-2
2.95	CSc1nnc2c(n1)O[C@@H](c1cccc(Oc3ccccc3)c1)N(C(C)=O)c1ccccc1-2
3.02	CSc1nnc2c(n1)O[C@@H](c1ccccc1C)N(C(C)=O)c1ccccc1-2
1.23	CCC(=O)N1c2ccccc2-c2nnc(SC)nc2O[C@H]1c1cc(Br)c(OC)c(OC)c1
0.107	CCSc1nnc2c(n1)O[C@@H](c1cccc(OC)c1)N(C(=O)CC)c1ccccc1-2
1.23	CCSc1nnc2c(n1)O[C@@H](c1ccc(SC)cc1)N(C(=O)CC)c1ccccc1-2
7.76	C=CCSc1nnc2c(n1)O[C@@H](c1ccc(OC)c(OC)c1OC)N(C(C)=O)c1ccccc1-2
1.02	CSc1nnc2c(n1)O[C@@H](c1ccsc1)N(C(C)=O)c1ccccc1-2

EC50 [µM]	Compound
0.891	COc1ccc(OC)c([C@@H]2Oc3nc(SC)nnc3-c3ccccc3N2C(C)=O)c1
1.78	CCC(=O)N1c2ccccc2-c2nnc(SC)nc2O[C@H]1c1ccccc1F
1.26	C=CCSc1nnc2c(n1)O[C@@H](c1ccc(OC(C)=O)c(OCC)c1)N(C(C)=O)c1ccccc1-2
2.34	CCC(=O)N1c2ccccc2-c2nnc(SC)nc2O[C@H]1c1cccc(C)n1
5.75	CCC(=O)Oc1ccc(Br)c([C@@H]2Oc3nc(SC)nnc3-c3ccccc3N2C(=O)CC)c1
1.2	CCCSc1nnc2c(n1)O[C@@H](c1cc(OC)c(OC)cc1Cl)N(C(C)=O)c1ccccc1-2
0.347	CCCSc1nnc2c(n1)O[C@@H](c1cccn1C)N(C(C)=O)c1ccccc1-2
0.891	C=CCSc1nnc2c(n1)O[C@@H](c1cc(C)ccc1OC(C)=O)N(C(C)=O)c1ccccc1-2
0.832	CCC(=O)N1c2ccccc2-c2nnc(SC)nc2O[C@H]1c1cc(OC)c(OC)c(OC)c1
0.309	CCSc1nnc2c(n1)O[C@@H](c1cccs1)N(C(=O)CC)c1ccccc1-2
0.813	CCSc1nnc2c(n1)O[C@@H](c1ccco1)N(C(=O)CC)c1ccccc1-2
0.479	CCCCSc1nnc2c(n1)O[C@@H](c1ccsc1)N(C(C)=O)c1ccccc1-2
0.617	CCCCSc1nnc2c(n1)O[C@@H](c1cccc(C)n1)N(C(C)=O)c1ccccc1-2
2.24	CCCC(=O)N1c2ccccc2-c2nnc(SC)nc2O[C@H]1c1ccc(C(=O)OC)cc1
0.692	C=CCSc1nnc2c(n1)O[C@@H](c1ccc(OCC)c(OC)c1)N(C(C)=O)c1ccccc1-2
0.457	C=CCSc1nnc2c(n1)O[C@@H](c1sccc1C)N(C(C)=O)c1ccccc1-2
5.25	CCC(=O)N1c2ccccc2-c2nnc(SC)nc2O[C@H]1c1cc2c(cc1Cl)OCO2
0.398	CCSc1nnc2c(n1)O[C@@H](c1ccccc1F)N(C(C)=O)c1ccccc1-2
0.229	C=CCSc1nnc2c(n1)O[C@@H](/C=C/c1cccs1)N(C(C)=O)c1ccccc1-2
3.31	C=CCSc1nnc2c(n1)O[C@@H](c1cc(Br)c(OC(C)=O)c(OC)c1)N(C(C)=O)c1ccccc1-2
4.27	CCC(=O)N1c2ccccc2-c2nnc(SC)nc2O[C@H]1c1ccco1
3.31	CSc1nnc2c(n1)O[C@@H](c1cccc(OCc3ccccc3)c1)N(C(C)=O)c1ccccc1-2
0.646	CCCSc1nnc2c(n1)O[C@@H](c1ccccc1F)N(C(=O)CC)c1ccccc1-2
1.12	C=CCSc1nnc2c(n1)O[C@@H](c1ccccc1F)N(C(C)=O)c1ccccc1-2
1.7	C=CCSc1nnc2c(n1)O[C@@H](/C=C/c1ccccc1)N(C(C)=O)c1ccccc1-2

EC50 [µM]	Compound
1.41	CCC(=O)N1c2ccccc2-c2nnc(SC)nc2O[C@H]1c1ccc(I)o1
0.871	CCC(=O)N1c2ccccc2-c2nnc(SC)nc2O[C@H]1c1ccc(Cl)cc1
3.89	CCCC(=O)N1c2ccccc2-c2nnc(SC)nc2O[C@H]1c1cccnc1
1.86	CCCC(=O)N1c2ccccc2-c2nnc(SC)nc2O[C@H]1c1sccc1C
0.316	C=CCSc1nnc2c(n1)O[C@@H](c1cccs1)N(C(C)=O)c1ccccc1-2
1.02	C=CCSc1nnc2c(n1)O[C@@H](c1ccco1)N(C(C)=O)c1ccccc1-2
2	CCC(=O)N1c2ccccc2-c2nnc(SC)nc2O[C@H]1c1ccccc1C
1.1	CCC(=O)N1c2ccccc2-c2nnc(SC)nc2O[C@H]1c1ccc(OC)c(Br)c1
6.76	CCCSc1nnc2c(n1)O[C@@H](CC)N(C(C)=O)c1ccccc1-2
13.8	CCSc1nnc2c(n1)O[C@@H](C)N(C(C)=O)c1ccccc1-2
0.0955	C=CCSc1nnc2c(n1)O[C@@H](c1ccccc1)N(C(C)=O)c1ccccc1-2
0.562	C=CCSc1nnc2c(n1)O[C@@H](c1ccccn1)N(C(C)=O)c1ccccc1-2
1.32	C=CCSc1nnc2c(n1)O[C@@H](c1ccccc1OCCC)N(C(C)=O)c1ccccc1-2
0.759	CCC(=O)N1c2ccccc2-c2nnc(SC)nc2O[C@H]1c1cc(Cl)ccc1OC
2.75	COc1ccc([C@@H]2Oc3nc(SC)nnc3-c3ccccc3N2C(C)=O)cc1
3.47	CSc1nnc2c(n1)O[C@@H](c1ccccc1F)N(C(C)=O)c1ccccc1-2
0.871	CSc1nnc2c(n1)O[C@H](c1cn(C(C)=O)c3ccccc13)N(C(C)=O)c1ccccc1-2
1.2	C=CCOc1ccc([C@@H]2Oc3nc(SCC=C)nnc3-c3ccccc3N2C(C)=O)cc1
3.16	C=CCSc1nnc2c(n1)O[C@@H](c1ccc(N(C)C)cc1)N(C(C)=O)c1ccccc1-2
2.19	CCC(=O)N1c2ccccc2-c2nnc(SC)nc2O[C@H]1c1ccc(OC)cc1
0.562	CCC(=O)N1c2ccccc2-c2nnc(SC)nc2O[C@H]1c1ccccc1OC
0.331	C=CCSc1nnc2c(n1)O[C@@H](c1ccc(C)s1)N(C(C)=O)c1ccccc1-2
1.51	CSc1nnc2c(n1)O[C@@H](c1ccc(Br)cc1)N(C(C)=O)c1ccccc1-2
1	CCSc1nnc2c(n1)O[C@H](c1ccc(OC(C)=O)c(OC)c1)N(C(C)=O)c1ccccc1-2
4.27	CCSc1nnc2c(n1)O[C@H](c1cc3c(cc1Br)OCO3)N(C(C)=O)c1ccccc1-2

EC50 [µM]	Compound
0.49	CCCSc1nnc2c(n1)O[C@@H](c1ccncc1)N(C(C)=O)c1ccccc1-2
0.158	CCCSc1nnc2c(n1)O[C@@H](c1ccccc1OC)N(C(C)=O)c1ccccc1-2
3.24	CCC(=O)Oc1ccc(Cl)cc1[C@@H]1Oc2nc(SC)nnc2-c2ccccc2N1C(=O)CC
0.191	CCC(=O)N1c2ccccc2-c2nnc(SC)nc2O[C@H]1c1cc(OC)ccc1OC
1.23	CCOc1ccccc1[C@@H]1Oc2nc(SC)nnc2-c2ccccc2N1C(C)=O
2.04	CCSc1nnc2c(n1)O[C@H](c1ccccc1C)N(C(C)=O)c1ccccc1-2
1.82	CCSc1nnc2c(n1)O[C@H](c1cccnc1)N(C(C)=O)c1ccccc1-2
1.26	CSc1nnc2c(n1)O[C@@H](c1cccc(F)c1)N(C(C)=O)c1ccccc1-2
4.07	CSc1nnc2c(n1)O[C@@H](c1c(C)[nH]c3ccccc13)N(C(C)=O)c1ccccc1-2
0.398	CCOc1ccc(Br)cc1[C@@H]1Oc2nc(SC)nnc2-c2ccccc2N1C(=O)CC
1.95	CCCC(=O)N1c2ccccc2-c2nnc(SC)nc2O[C@H]1c1cccc(C)n1
1.32	CCCSc1nnc2c(n1)O[C@H](c1ccccc1OC(C)=O)N(C(C)=O)c1ccccc1-2
3.8	CCSc1nnc2c(n1)O[C@@H](c1cc(OC(C)=O)ccc1Cl)N(C(C)=O)c1ccccc1-2
9.55	CSc1nnc2c(n1)O[C@@H](c1cccn1C)N(C(C)=O)c1ccccc1-2
1.2	CCSc1nnc2c(n1)O[C@@H](c1ccc(C)s1)N(C(C)=O)c1ccccc1-2
2.09	CCCC(=O)N1c2ccccc2-c2nnc(SC)nc2O[C@H]1c1ccc(OC)cc1OC
0.871	CCCC(=O)N1c2ccccc2-c2nnc(SC)nc2O[C@H]1c1cccs1
1.12	CCCOc1ccccc1[C@@H]1Oc2nc(SCC)nnc2-c2ccccc2N1C(C)=O
0.871	CCSc1nnc2c(n1)O[C@@H](c1ccco1)N(C(C)=O)c1ccccc1-2
1.12	CCC(=O)N1c2ccccc2-c2nnc(SC)nc2O[C@H]1c1ccc(Br)s1
1.38	CCOc1cc([C@@H]2Oc3nc(SC)nnc3-c3ccccc3N2C(=O)CC)ccc1OC
2.24	CCCC(=O)N1c2ccccc2-c2nnc(SC)nc2O[C@H]1c1ccc(C)o1
0.832	C=CCSc1nnc2c(n1)O[C@@H](c1cccnc1)N(C(C)=O)c1ccccc1-2
